Assay results taken from ChEMBL document CHEMBL3885881, “DrugMatrix”.

Species: Rattus norvegicus
Experiment: DrugMatrix - Regimen: Daily Repeat
Format: toxicity, organism-based, Sprague-Dawley
Design: regimen Daily Repeat, gender Male, age 6-8 weeks
Settings: in vivo, po, route oral GAVAGE, […]; for ABSOLUTE BASOPHIL / ABSOLUTE EOSINOPHIL / ABSOLUTE LYMPHOCYTE / ABSOLUTE MONOCYTE / ABSOLUTE SEGMENTED NEUTROPHIL / BASOPHIL / EOSINOPHIL / ERYTHROCYTE COUNT / HEMATOCRIT / HEMOGLOBIN / LEUKOCYTE COUNT / LYMPHOCYTE / MEAN CORPUSCULAR HEMOGLOBIN / MEAN CORPUSCULAR HEMOGLOBIN CONCENTRATION / MEAN CORPUSCULAR VOLUME / MONOCYTE / NEUTROPHIL / NUCLEATED RED BLOOD CELLS / PLATELET COUNT: tissue Blood; for ALANINE AMINOTRANSFERASE / ALBUMIN / ALKALINE PHOSPHATASE / ASPARTATE AMINOTRANSFERASE / BLOOD UREA NITROGEN / CARBON DIOXIDE / CHLORIDE / CHOLESTEROL / CREATINE PHOSPHOKINASE / CREATININE / GLUCOSE / LACTATE DEHYDROGENASE / LIPASE / PHOSPHORUS / POTASSIUM / SODIUM / TOTAL BILIRUBIN / TOTAL PROTEIN / URIC ACID: tissue Plasma
[1] = 100 mg/kg, 120 h, dose level Low, time 5 day
[2] = 700 mg/kg, 72 h, dose level High, time 3 day
[3] = 700 mg/kg, 120 h, dose level High, time 5 day

With `CC(=O)Nc1cccc(O)c1` [METACETAMOL] the “ABSOLUTE BASOPHIL” value [1] was 0 CELLS/uL, the “ABSOLUTE EOSINOPHIL” value [1] was 0 CELLS/uL and the “ABSOLUTE LYMPHOCYTE” value [1] was 14298.33 CELLS/uL. For the same molecule, the “ABSOLUTE MONOCYTE” value [1] was 106.33 CELLS/uL, the “ABSOLUTE SEGMENTED NEUTROPHIL” value [1] was 1828.67 CELLS/uL and the BASOPHIL [1] was 0%. For the same molecule, the EOSINOPHIL [1] was 0%, the “ERYTHROCYTE COUNT” value [1] was 5.63 x10E6/uL and the HEMATOCRIT [1] was 35%. For the same molecule, the HEMOGLOBIN [1] was 13.73 G/DL, the “LEUKOCYTE COUNT” value [1] was 16.23 x10E3/uL and the LYMPHOCYTE [1] was 88%. For the same molecule, the “MEAN CORPUSCULAR HEMOGLOBIN” value [1] was 24.43 pg, the “MEAN CORPUSCULAR HEMOGLOBIN CONCENTRATION” value [1] was 39.23 G/DL and the “MEAN CORPUSCULAR VOLUME” value [1] was 62.23 fL. The MONOCYTE [1] was 0.67%, the NEUTROPHIL [1] was 11.33% and the “NUCLEATED RED BLOOD CELLS” value [1] was 0.33 /100WBC. For the same molecule, the “PLATELET COUNT” value [1] was 1235.67 x10E3/uL, the “ALANINE AMINOTRANSFERASE” value [1] was 58.33 u/L and the ALBUMIN [1] was 4.03 G/DL. For the same molecule, the “ALKALINE PHOSPHATASE” value [1] was 434.67 u/L, the “ASPARTATE AMINOTRANSFERASE” value [1] was 95 u/L and the “BLOOD UREA NITROGEN” value [1] was 14.67 mg/dL. The “CARBON DIOXIDE” value [1] was 26.67 mmol/L, the CHLORIDE [1] was 101 MEQ/L and the CHOLESTEROL [1] was 68.33 mg/dL. For the same molecule, the “CREATINE PHOSPHOKINASE” value [1] was 455.33 u/L, the CREATININE [1] was 0.2 mg/dL and the GLUCOSE [1] was 151 mg/dL. For the same molecule, the “LACTATE DEHYDROGENASE” value [1] was 549 u/L, the LIPASE [1] was 10.33 u/L and the PHOSPHORUS [1] was 11.03 mg/dL. For the same molecule, the POTASSIUM [1] was 6.46 MEQ/L, the SODIUM [1] was 140.67 MEQ/L and the “TOTAL BILIRUBIN” value [1] was 0.17 mg/dL. For the same molecule, the “TOTAL PROTEIN” value [1] was 5.73 G/DL, the “URIC ACID” value [1] was 1.6 mg/dL and the “ABSOLUTE BASOPHIL” value [2] was 0 CELLS/uL. For the same molecule, the “ABSOLUTE EOSINOPHIL” value [2] was 0 CELLS/uL, the “ABSOLUTE LYMPHOCYTE” value [2] was 14734.67 CELLS/uL and the “ABSOLUTE MONOCYTE” value [2] was 227.67 CELLS/uL. For the same molecule, the “ABSOLUTE SEGMENTED NEUTROPHIL” value [2] was 1637.67 CELLS/uL, the BASOPHIL [2] was 0% and the EOSINOPHIL [2] was 0%. For the same molecule, the “ERYTHROCYTE COUNT” value [2] was 5.31 x10E6/uL, the HEMATOCRIT [2] was 34.37% and the HEMOGLOBIN [2] was 13.6 G/DL. For the same molecule, the “LEUKOCYTE COUNT” value [2] was 16.6 x10E3/uL, the LYMPHOCYTE [2] was 89% and the “MEAN CORPUSCULAR HEMOGLOBIN” value [2] was 25.6 pg. The “MEAN CORPUSCULAR HEMOGLOBIN CONCENTRATION” value [2] was 39.6 G/DL, the “MEAN CORPUSCULAR VOLUME” value [2] was 64.7 fL and the MONOCYTE [2] was 1.33%. The NEUTROPHIL [2] was 9.67%, the “NUCLEATED RED BLOOD CELLS” value [2] was 0 /100WBC and the “PLATELET COUNT” value [2] was 1189.67 x10E3/uL. For the same molecule, the “ALANINE AMINOTRANSFERASE” value [2] was 61.67 u/L, the ALBUMIN [2] was 4.37 G/DL and the “ALKALINE PHOSPHATASE” value [2] was 420.33 u/L. The “ASPARTATE AMINOTRANSFERASE” value [2] was 80.33 u/L, the “BLOOD UREA NITROGEN” value [2] was 15.67 mg/dL and the “CARBON DIOXIDE” value [2] was 32.33 mmol/L. For the same molecule, the CHLORIDE [2] was 98.67 MEQ/L, the CHOLESTEROL [2] was 94 mg/dL and the “CREATINE PHOSPHOKINASE” value [2] was 171 u/L. The CREATININE [2] was 0.17 mg/dL, the GLUCOSE [2] was 144 mg/dL and the “LACTATE DEHYDROGENASE” value [2] was 137 u/L. The LIPASE [2] was 10 u/L, the PHOSPHORUS [2] was 10.6 mg/dL and the POTASSIUM [2] was 6.44 MEQ/L. The SODIUM [2] was 143.63 MEQ/L, the “TOTAL BILIRUBIN” value [2] was 0.27 mg/dL and the “TOTAL PROTEIN” value [2] was 6 G/DL. The “URIC ACID” value [2] was 1.33 mg/dL, the “ABSOLUTE BASOPHIL” value [3] was 0 CELLS/uL and the “ABSOLUTE EOSINOPHIL” value [3] was 0 CELLS/uL. For the same molecule, the “ABSOLUTE LYMPHOCYTE” value [3] was 13480 CELLS/uL, the “ABSOLUTE MONOCYTE” value [3] was 247.33 CELLS/uL and the “ABSOLUTE SEGMENTED NEUTROPHIL” value [3] was 2206 CELLS/uL. For the same molecule, the BASOPHIL [3] was 0%, the EOSINOPHIL [3] was 0% and the “ERYTHROCYTE COUNT” value [3] was 5.72 x10E6/uL. The HEMATOCRIT [3] was 35.17%, the HEMOGLOBIN [3] was 13.93 G/DL and the “LEUKOCYTE COUNT” value [3] was 15.93 x10E3/uL. For the same molecule, the LYMPHOCYTE [3] was 84.67%, the “MEAN CORPUSCULAR HEMOGLOBIN” value [3] was 24.37 pg and the “MEAN CORPUSCULAR HEMOGLOBIN CONCENTRATION” value [3] was 39.6 G/DL. For the same molecule, the “MEAN CORPUSCULAR VOLUME” value [3] was 61.53 fL, the MONOCYTE [3] was 1.67% and the NEUTROPHIL [3] was 13.67%. The “NUCLEATED RED BLOOD CELLS” value [3] was 0.67 /100WBC, the “PLATELET COUNT” value [3] was 1165.67 x10E3/uL and the “ALANINE AMINOTRANSFERASE” value [3] was 57 u/L. For the same molecule, the ALBUMIN [3] was 4.27 G/DL, the “ALKALINE PHOSPHATASE” value [3] was 454.33 u/L and the “ASPARTATE AMINOTRANSFERASE” value [3] was 78.67 u/L. The “BLOOD UREA NITROGEN” value [3] was 15.67 mg/dL, the “CARBON DIOXIDE” value [3] was 27.33 mmol/L and the CHLORIDE [3] was 105 MEQ/L. For the same molecule, the CHOLESTEROL [3] was 78.67 mg/dL, the “CREATINE PHOSPHOKINASE” value [3] was 239.33 u/L and the CREATININE [3] was 0.25 mg/dL. For the same molecule, the GLUCOSE [3] was 169.67 mg/dL, the “LACTATE DEHYDROGENASE” value [3] was 132 u/L and the LIPASE [3] was 10.33 u/L. It also gave a PHOSPHORUS [3] of 10.87 mg/dL, a POTASSIUM [3] of 7.12 MEQ/L and an SODIUM [3] of 151.07 MEQ/L. For the same molecule, the “TOTAL BILIRUBIN” value [3] was 0.2 mg/dL, the “TOTAL PROTEIN” value [3] was 5.97 G/DL and the “URIC ACID” value [3] was 2 mg/dL.
